Read-outs that look alike come from different tables or passages of the source.
Columns and labels:
[1] = system: Bloodstream form T-brucei (strain 427); test: Growth inhibition of cultured bloodstream form T. brucei, 3 days in presence of test compounds; conditions: for (Inhibition) (5 μg ml^−1): preliminary screen at 5 μg ml^−1, 3 days; for inhibition at 5 µg/mL: read-out: (Inhibition) (5 μg ml^−1)
Description: After determination of cell densities at each drug concentration using a hemocytometer (Weber Scientific International Ltd), drug sensitivity was expressed as a percentage of growth of control cells.
In a preliminary screen, bloodstream form T.brucei were cultured for 3 days in growth medium at pH 7.4 in the presence of aminoalkylcyclohexane derivatives at a concentration of 5 μg ml^−1.
Initially each compound was screened to determine the inhibitory effect at 5 μg ml^−1 (data in brackets). […] Each experiment was performed in triplicate, except where indicated (++). […] Values are presented as ±SD from the mean. […] All other compounds were dissolved in H2O. Control cells were treated accordingly. ND stands for not done.

[2] = patients, advanced stage of the disease; cited from earlier work
[3] = system: bloodstream form of the African trypanosome, Trypanosoma brucei; conditions: reported recently; cited from earlier work
[4] = Trypanosoma brucei, 72 h, pH 7.4
[5] = concentration inhibiting growth by 50%, 3 days, 37°, pH 7.4, ±SD
[6] = concentration inhibiting growth by 90%, 3 days, 37°, pH 7.4, ±SD, ++ = six experiments
[7] = Trypanosoma brucei, 72 h, read-out: IC90

## CCCC1(C)CCCC(C)(N)C1 (stereo not drawn) [Compound 617, 1-Amino-1,3-dimethyl-3-propylcyclohexane]
[1]; [4]
  IC50: 1.54 ± 0.08 µg/mL
  IC90: 2.33 ± 0.24 µg/mL

## CC1(C)CC(C)(C)CC(C)(CCN)C1 [Compound 662, 2-(1,3,3,5,5-Pentamethylcyclohexyl-1) ethylamine]
[1]; [5]
  IC50: 0.24 ± 0.03 µg/mL
[1]; [6]
  IC90: 0.38 ± 0.08++ μg ml−1

## CCC[C@H]1CC(C)(C)C[C@](C)(N)C1 (relative stereo) [Compound 635, trans-3-Propyl-1,5,5-trimethylcyclohexylamine]
[1]; [5]
  IC50: 2.23 ± 0.33 µg/mL
[1]; [6]
  IC90: 3.67 ± 0.06 µg/mL

## CCC1(C)CC(C)CC(C)(N)C1 (stereo not drawn) [Compound 622, cis-3-Ethyl-1, trans-3, trans-5-trimethylcyclohexamine]
[1]
  (Inhibition) (5 μg ml^−1): (40%)

## CC[C@@H]1CC(C)(C)C[C@](C)(N)C1 (relative stereo) [Compound 632, 1-Amino-1,3,3-trimethyl-5 (cis) ethylcyclohexane]
[1]; [4]
  IC50: 2.92 ± 0.19 µg/mL
  IC90: 3.8 ± 0.07 µg/mL

## CCCC1(C)CC(C)(C)CC(C)(N)C1 (stereo not drawn) [Compound 614, 3-Propyl-1,3,5,5-Tetramethylcyclohexylamine]
[1]; [4]
  IC50: 0.55 ± 0.11 µg/mL
  IC90: 0.88 ± 0.09 µg/mL

## CCCC1(C)CC(C)CC(C)(N)C1 (stereo not drawn) [Compound 618, 1-Amino-1,3 (trans),5 (trans)-trimethyl-3(cis)-propylcyclohexane]
[1]; [5]
  IC50: 2.19 ± 0.69 µg/mL
[1]; [6]
  IC90: 3.59 ± 0.17 µg/mL

## CC[C@H]1CCC[C@](C)(N)C1 (relative stereo) [Compound 629, 1-Amino-1-methyl-3 (trans) ethylcyclohexane]
[1]; Trypanosoma brucei, 72 h
  inhibition at 5 µg/mL: 2%

## CC1(C)CCCC(C)(N)C1 (stereo not drawn) [Compound 621, 1-Amino-1,3,3-trimethylcyclohexane]
[1]; Trypanosoma brucei, 72 h
  inhibition at 5 µg/mL: 40%

## CC1(C)CC(CCN)CC(C)(C)C1 [Compound 644, 2-(3,3,5,5-Tetramethylcyclohexyl)ethylamine]
[1]; [4]
  IC50: 0.23 ± 0.02 µg/mL
  IC90: 0.31 ± 0.03 µg/mL

## C[C@H]1CCC[C@](C)(N)C1 (relative stereo) [Compound 625, 1-Amino-1,3 (trans)-dimethylcyclohexane]
[1]
  (Inhibition) (5 μg ml^−1): (0%)

## CCC1(C)CCCC(C)(N)C1 (stereo not drawn) [Compound 620, 1-Amino-1,3-dimethyl-3-ethylcyclohexane]
[1]; Trypanosoma brucei, 72 h
  inhibition at 5 µg/mL: 25%

## CC1(C)CC(CN)CC(C)(C)C1 [Compound 580, 3,3,5,5-Tetramethylcyclohexylmethylamine]
[1]; [4]
  IC50: 1.44 ± 0.09 µg/mL
  IC90: 1.89 ± 0.02 µg/mL
[1]; [7]
  IC90: < 2 µg/mL

## Nc1nc(N)nc(Nc2ccc([As]3SCC(CO)S3)cc2)n1 (stereo not drawn) [Melarsoprol]
[2]
  patient mortality due to arsenic encephalopathy: 5 to 10%

## CCCC1CCCC(C)(N)C1 (stereo not drawn) [Compound 628, 1-Methyl-3-cis-propylcyclohexylamine]
[1]; [5]
  IC50: 1.54 ± 0.02 µg/mL
[1]; [6]
  IC90: 1.95 ± 0.03 µg/mL

## CC(N)C12CC3CC(CC(C3)C1)C2 (stereo not drawn) [rimantadine]
[3]
  sensitivity of bloodstream form T. brucei: sensitive

## C[C@@H]1CC(C)(C)C[C@@](C)(N)C1 (relative stereo) [Compound 607, 1-Amino-1,3,3,5(trans)-tetramethylcyclohexane]
[1]
  (Inhibition) (5 μg ml^−1): (17%)

## CCC[C@H]1CCC[C@](C)(N)C1 (relative stereo) [Compound 627, 1-Amino-1-methyl-3 (trans) propylcyclohexane]
[1]
  (Inhibition) (5 μg ml^−1): (17%)

## CCCC1(N)CC(C)(C)CC(C)(C)C1 [Compound 601, 1-Amino-1-propyl-3,3,5,5-tetramethylcyclohexane]
[1]; [4]
  IC50: 1.43 ± 0.08 µg/mL
  IC90: 1.87 ± 0.02 µg/mL
[1]; [7]
  IC90: < 2 µg/mL

## CCNC1(C)CC(C)(C)CC(C)(C)C1 [Compound 639, N-Ethyl-1,3,3,5,5-pentamethylcyclohexylamine]
[1]; [4]
  IC50: 1.37 ± 0.19 µg/mL
  IC90: 1.96 ± 0.03 µg/mL
[1]; [7]
  IC90: < 2 µg/mL

## CCC1CC(C)(C)CC(C)(N)C1 (stereo not drawn) [Compound 633, 1-Amino-1,3,3-trimethyl-5 (trans) ethylcyclohexane]
[1]; Trypanosoma brucei, 72 h
  inhibition at 5 µg/mL: 68%

## CCC[C@H]1CC(C)(C)C[C@@](C)(N)C1 (relative stereo) [Compound 634, cis-3-Propyl-1,5,5-trimethylcyclohexylamine]
[1]; [5]
  IC50: 0.57 ± 0.13 µg/mL
[1]; [6]
  IC90: 0.77 ± 0.15++ μg ml−1

## CCCC1(CCC)CC(C)(C)CC(C)(N)C1 (stereo not drawn) [Compound 626, 1,3,3-Trimethyl-5,5-dipropylcyclohexylamine]
[1]; [4]
  IC50: 0.25 ± 0.01 µg/mL
  IC90: 0.29 ± 0.01 µg/mL

## CC1(N)CCCCC1 [Compound 641, 1-Amino-1-methylcyclohexane]
[1]; Trypanosoma brucei, 72 h
  inhibition at 5 µg/mL: 86%

## CN(C)C1(C)CC(C)(C)CC(C)(C)C1 [Compound 642, N,N-dimethyl-1-amino-1,3,3,5,5-pentamethylcyclohexane]
[1]; Trypanosoma brucei, 72 h
  inhibition at 5 µg/mL: 21%

## CCC1(C)CC(C)(C)CC(C)(N)C1 (stereo not drawn) [Compound 615, 1-Amino-1,3,5,5-tetramethyl-3-ethylcyclohexane]
[1]; [4]
  IC50: 1.45 ± 0.07 µg/mL
  IC90: 1.93 ± 0.02 µg/mL

## CC(C)(N)CC1CC(C)(C)CC(C)(C)C1 [Compound 645, 2-Methyl-1-(3,3,5,5-tetramethylcyclohexyl)propyl-2-amine]
[1]; [5]
  IC50: 0.22 ± 0.02 µg/mL
[1]; [6]
  IC90: 0.29 ± 0.01 µg/mL

Reference: US6602862B1, “1-Amino-alkylcyclohexanes as trypanocidal agents” (Merz Pharma GmbH & Co., KGAA, priority 2000, dated 2003)
